According to patent publication US9051310B2, “Nicotinamide derivative or salt thereof” (FUJIFILM Corporation, priority 2011, dated 2015):

Molecular target: T1, glutathione S-transferase (GST)-linked full-length human Syk protein (Homo sapiens, UniProt P43405)
T1 construct: glutathione S-transferase (GST)-linked full-length human Syk protein; purchased Carna Biosciences; host or cells: Baculovirus expression system
Experiment: Syk enzyme assay
Assay type: biochemical
Details: 0.83 nM Syk, time-resolved fluorescence; read-out: IC50 of Syk-inhibitory activity
How it was run: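 Phosphotyrosine on a biotin-peptide substrate (0.5 μM) was read by time-resolved fluorescence at 615 and 665 nm with Eu-anti-pTyr antibody and APC-streptavidin after 1 h EDTA stop.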

Row | Compound | IC50 [nM]
1 | CC(C)C[C@@H](Nc1nc(Nc2cnc(N3CCOCC3)c(F)c2)c(C(N)=O)cc1F)[C@H](C)N [Example 2-237, 6-(((2S,3R)-2-amino-5-methylhexan-3-yl)amino)-5-fluoro-2-((5-fluoro-6-morpholinopyridin-3-yl)amino)nicotinamide] | 10 to 50
2 | CC[C@@H](Nc1nc(Nc2cnc3c(c2)c(C)nn3C)c(C(N)=O)cc1F)[C@H](C)N [Example 2-241, 6-(((2S,3R)-2-aminopentan-3-yl)amino)-2-((1,3-dimethyl-1H-pyrazolo[3,4-b]pyridin-5-yl)amino)-5-fluoronicotinamide] | 10 to 50
3 | CCCC[C@@H](Nc1nc(Nc2cnc3c(c2)c(C)nn3C)c(C(N)=O)cc1F)[C@H](C)N [Example 2-244, 6-(((2S,3R)-2-aminoheptan-3-yl)amino)-2-((1,3-dimethyl-1H-pyrazolo[3,4-b]pyridin-5-yl)amino)-5-fluoronicotinamide] | 10 to 50
4 | Cc1nn(C)c2ncc(Nc3nc(N[C@H](CC(C)C)[C@H](C)N)c(F)cc3C(N)=O)cc12 [Example 2-245, 6-(((2S,3R)-2-amino-5-methylhexan-3-yl)amino)-2-((1,3-dimethyl-1H-pyrazolo[3,4-b]pyridin-5-yl)amino)-5-fluoronicotinamide] | < 10
5 | CC[C@H](N)[C@@H](CC)Nc1nc(Nc2cnc3c(c2)c(C)nn3C)c(C(N)=O)cc1F [Example 2-248, 6-(((3R,4S)-4-aminohexan-3-yl)amino)-2-((1,3-dimethyl-1H-pyrazolo[3,4-b]pyridin-5-yl)amino)-5-fluoronicotinamide] | 50 to 100
6 | COc1nn(C)c2ncc(Nc3nc(N[C@@H](CN)CC(C)C)c(F)cc3C(N)=O)cc12 [Example 2-250, (R)-6-((1-amino-4-methylpentan-2-yl)amino)-5-fluoro-2-((3-methoxy-1-methyl-1H-pyrazolo[3,4-b]pyridin-5-yl)amino)nicotinamide] | < 10
7 | COC[C@@H](Nc1nc(Nc2cnc3c(c2)c(OC)nn3C)c(C(N)=O)cc1F)[C@H](C)N [Example 2-256, 6-(((2S,3S)-3-amino-1-methoxybutan-2-yl)amino)-5-fluoro-2-((3-methoxy-1-methyl-1H-pyrazolo[3,4-b]pyridin-5-yl)amino)nicotinamide] | 50 to 100
8 | CC[C@H](N)[C@@H](C)Nc1nc(Nc2cnc3c(c2)c(OC)nn3C)c(C(N)=O)cc1F [Example 2-257, 6-(((2R,3S)-3-aminopentan-2-yl)amino)-5-fluoro-2-((3-methoxy-1-methyl-1H-pyrazolo[3,4-b]pyridin-5-yl)amino)nicotinamide] | 50 to 100
9 | CC[C@H](N)[C@@H](CC)Nc1nc(Nc2cnc3c(c2)c(OC)nn3C)c(C(N)=O)cc1F [Example 2-258, 6-(((3R,4S)-4-aminohexan-3-yl)amino)-5-fluoro-2-((3-methoxy-1-methyl-1H-pyrazolo[3,4-b]pyridin-5-yl)amino)nicotinamide] | 10 to 50
10 | CC[C@@H](Nc1nc(Nc2cnc(N3CCOCC3)c(F)c2)c(C(N)=O)cc1F)[C@H](C)N [Example 2-259, 6-(((2S,3R)-2-aminopentan-3-yl)amino)-5-fluoro-2-((5-fluoro-6-morpholinopyridin-3-yl)amino)nicotinamide] | 50 to 100
11 | CCC[C@@H](Nc1nc(Nc2cnc(N3CCOCC3)c(F)c2)c(C(N)=O)cc1F)[C@H](C)N [Example 2-260, 6-(((2S,3R)-2-aminohexan-3-yl)amino)-5-fluoro-2-((5-fluoro-6-morpholinopyridin-3-yl)amino)nicotinamide] | 10 to 50
12 | CC(C)C[C@H](CN)Nc1nc(Nc2cnc(N3CCOCC3)c(F)c2)c(C(N)=O)cc1F [Example 2-261, (R)-6-((1-amino-4-methylpentan-2-yl)amino)-5-fluoro-2-((5-fluoro-6-morpholinopyridin-3-yl)amino)nicotinamide] | 10 to 50
13 | CCCC[C@@H](Nc1nc(Nc2cnc(N3CCOCC3)c(F)c2)c(C(N)=O)cc1F)[C@H](C)N [Example 2-262, 6-(((2S,3R)-2-aminoheptan-3-yl)amino)-5-fluoro-2-((5-fluoro-6-morpholinopyridin-3-yl)amino)nicotinamide] | 10 to 50
14 | CCn1ncc2cc(Nc3nc(N[C@H](C4CCCCC4)[C@H](C)N)c(F)cc3C(N)=O)ccc21 [Example 2-264, 6-(((1R,2S)-2-amino-1-cyclohexylpropyl)amino)-2-((1-ethyl-1H-indazol-5-yl)amino)-5-fluoronicotinamide] | 10 to 50
15 | CC[C@@H](Nc1nc(Nc2cnc(NC)c(F)c2)c(C(N)=O)cc1F)[C@H](C)N [Example 2-276, 6-(((2S,3R)-2-aminopentan-3-yl)amino)-5-fluoro-2-((5-fluoro-6-(methylamino)pyridin-3-yl)amino)nicotinamide] | 10 to 50
16 | CCC[C@@H](Nc1nc(Nc2cnc(NC)c(F)c2)c(C(N)=O)cc1F)[C@H](C)N [Example 2-277, 6-(((2S,3R)-2-aminohexan-3-yl)amino)-5-fluoro-2-((5-fluoro-6-(methylamino)pyridin-3-yl)amino)nicotinamide] | 10 to 50

Row | Compound | IC50 [nM]
17 | CNc1ncc(Nc2nc(N[C@H](CC(C)C)[C@H](C)N)c(F)cc2C(N)=O)cc1F [Example 2-278, 6-(((2S,3R)-2-amino-5-methylhexan-3-yl)amino)-5-fluoro-2-((5-fluoro-6-(methylamino)pyridin-3-yl)amino)nicotinamide] | 10 to 50
18 | CC[C@H](N)[C@@H](C)Nc1nc(Nc2cnc(OC)c(-n3nccn3)c2)c(C(N)=O)cc1F [Example 2-279, 6-(((2R,3S)-3-aminopentan-2-yl)amino)-5-fluoro-2-((6-methoxy-5-(2H-1,2,3-triazol-2-yl)pyridin-3-yl)amino)nicotinamide] | 10 to 50
19 | CN(C)c1nn(C)c2ncc(Nc3nc(N[C@@H]4CCCC[C@@H]4N)c(F)cc3C(N)=O)cc12 [Example 2-286, 6-(((1R,2S)-2-aminocyclohexyl)amino)-2-((3-(dimethylamino)-1-methyl-1H-pyrazolo[3,4-b]pyridin-5-yl)amino)-5-fluoronicotinamide] | 10 to 50
20 | CC(C)C[C@H](CN)Nc1nc(Nc2cnc3c(c2)c(N(C)C)nn3C)c(C(N)=O)cc1F [Example 2-287, (R)-6-((1-amino-4-methylpentan-2-yl)amino)-2-((3-(dimethylamino)-1-methyl-1H-pyrazolo[3,4-b]pyridin-5-yl)amino)-5-fluoronicotinamide] | 10 to 50
21 | CC[C@@H](Nc1nc(Nc2cnc3c(c2)c(N(C)C)nn3C)c(C(N)=O)cc1F)[C@H](C)N [Example 2-288, 6-(((2S,3R)-2-aminopentan-3-yl)amino)-2-((3-(dimethylamino)-1-methyl-1H-pyrazolo[3,4-b]pyridin-5-yl)amino)-5-fluoronicotinamide] | 10 to 50
22 | CCC[C@@H](Nc1nc(Nc2cnc3c(c2)c(N(C)C)nn3C)c(C(N)=O)cc1F)[C@H](C)N [Example 2-289, 6-(((2S,3R)-2-aminohexan-3-yl)amino)-2-((3-(dimethylamino)-1-methyl-1H-pyrazolo[3,4-b]pyridin-5-yl)amino)-5-fluoronicotinamide] | < 10
23 | C[C@H](N)[C@H](Nc1nc(Nc2cnc3c(c2)c(N(C)C)nn3C)c(C(N)=O)cc1F)C1CC1 [Example 2-290, 6-(((1R,2S)-2-amino-1-cyclopropylpropyl)amino)-2-((3-(dimethylamino)-1-methyl-1H-pyrazolo[3,4-b]pyridin-5-yl)amino)-5-fluoronicotinamide] | 10 to 50
24 | C[C@H](N)[C@H](Nc1nc(Nc2cnc3c(c2)c(N(C)C)nn3C)c(C(N)=O)cc1F)C1CCC1 [Example 2-293, 6-(((1R,2S)-2-amino-1-cyclobutylpropyl)amino)-2-((3-(dimethylamino)-1-methyl-1H-pyrazolo[3,4-b]pyridin-5-yl)amino)-5-fluoronicotinamide] | < 10
25 | Cc1nn(CC(F)F)c2ccc(Nc3nc(N[C@H](C)[C@@H](N)C4CC4)c(F)cc3C(N)=O)cc12 [Example 2-300, 6-(((1S,2R)-1-amino-1-cyclopropylpropan-2-yl)amino)-2-((1-(2,2-difluoroethyl)-3-methyl-1H-indazol-5-yl)amino)-5-fluoronicotinamide] | 10 to 50
26 | C[C@@H](Nc1nc(Nc2ccc3c(c2)c(N(C)C)nn3C)c(C(N)=O)cc1F)[C@@H](N)C1CC1 [Example 2-301, 6-(((1S,2R)-1-amino-1-cyclopropylpropan-2-yl)amino)-2-((3-(dimethylamino)-1-methyl-1H-indazol-5-yl)amino)-5-fluoronicotinamide] | 50 to 100
27 | COCCn1ncc2c(Nc3nc(N[C@@H](CN)CC(C)C)c(F)cc3C(N)=O)cccc21 [Example 2-303, (R)-6-((1-amino-4-methylpentan-2-yl)amino)-5-fluoro-2-((1-(2-methoxyethyl)-1H-indazol-4-yl)amino)nicotinamide] | < 10
28 | CC[C@@H](Nc1nc(Nc2cccc3c2cnn3CCOC)c(C(N)=O)cc1F)[C@H](C)N [Example 2-304, 6-(((2S,3R)-2-aminopentan-3-yl)amino)-5-fluoro-2-((1-(2-methoxyethyl)-1H-indazol-4-yl)amino)nicotinamide] | < 10
29 | CCCC[C@@H](Nc1nc(Nc2cccc3c2cnn3CCOC)c(C(N)=O)cc1F)[C@H](C)N [Example 2-307, 6-(((2S,3R)-2-aminoheptan-3-yl)amino)-5-fluoro-2-((1-(2-methoxyethyl)-1H-indazol-4-yl)amino)nicotinamide] | < 10
30 | COCCn1ncc2c(Nc3nc(N[C@H](CC(C)C)[C@H](C)N)c(F)cc3C(N)=O)cccc21 [Example 2-308, 6-(((2S,3R)-2-amino-5-methylhexan-3-yl)amino)-5-fluoro-2-((1-(2-methoxyethyl)-1H-indazol-4-yl)amino)nicotinamide] | < 10
31 | COCCn1ncc2c(Nc3nc(N[C@H](COC)[C@H](C)N)c(F)cc3C(N)=O)cccc21 [Example 2-309, 6-(((2S,3S)-3-amino-1-methoxybutan-2-yl)amino)-5-fluoro-2-((1-(2-methoxyethyl)-1H-indazol-4-yl)amino)nicotinamide] | 10 to 50
